Reference: patent publication US20020137929A1, “1 - (3-heterocyclylphenyl) isothiourea, -isourea, -guanidine and -amidine herbicidal agents” (Intellectual Property Department, BASF Aktiengesellschaft, priority 1998, published 2002)

Key:
GALAP (Galium) = test: Postemergence herbicidal evaluation; format: in vivo, Galium aparine; settings: postemergence
Procedure, shortened: (§1)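 First, seedlings were raised for around two weeks. Next, test material in 50/50 acetone/water containing 0.5% TWEEN 20 was sprayed through a nozzle at 40 psi, equivalent to about 0.0156–0.500 kg/ha. Finally, after 4–5 weeks in the greenhouse, plants were rated 0–9.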

ORYSAT (Rice, Tebonnet) [1] = test: Postemergence herbicidal evaluation; format: in vivo, Oryza sativa, (L.) Tebonnet; settings: postemergence
Procedure, shortened: as §1

ABUTH (Velvetleaf) = test: Postemergence herbicidal evaluation; format: in vivo, Abutilon theophrasti; settings: postemergence
Procedure, shortened: as §1

[2] = tested on: GLXMAW (Soybean, Williams); test: Postemergence herbicidal evaluation; format: in vivo, Glycine max, (L.) Merr. cv Williams; settings: postemergence
Procedure, shortened: as §1

AMBEL (Ragweed, Common) [3] = test: Postemergence herbicidal evaluation; format: in vivo, Ambrosia artemisifolia; settings: postemergence
Procedure, shortened: as §1

ORYSAT (Rice, Tebonnet) [4] = test: Preemergence herbicidal evaluation; format: in vivo, Oryza sativa, (L.) Tebonnet; settings: rated 4-5 weeks after treatment
Procedure, shortened: (§2)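 In this greenhouse assay, monocot and dicot seeds are planted in soil and treated prior to emergence with an aqueous acetone spray (about 0.0156-0.500 kg/ha). Plants are assessed visually against control on a 0-9 scale after 4-5 weeks.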

AMBEL (Ragweed, Common) [5] = test: Preemergence herbicidal evaluation; format: in vivo, Ambrosia artemisifolia; settings: rated 4-5 weeks after treatment
Procedure, shortened: as §2

[6] = tested on: TRZAWR (Wheat, Winter, cv Riband); test: Postemergence herbicidal evaluation; format: in vivo, Triticum aestivum; settings: postemergence
Procedure, shortened: as §1

[7] = tested on: SAGPY (Arrowhead (Pygmaea)); test: Preemergence weed control under flooded paddy conditions; format: in vivo, Sagittaria pygmaea; settings: rated 3-4 weeks after treatment
Procedure, shortened: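 Silt loam, seeds in top 0.5 cm; flood held 1.5-3 cm; test cpd as acetone/water 50/50 into flood water, ~0.0313-0.500 kg/ha a.i.; greenhouse 3-4 wk; visual 0-9 score vs control.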

SETVI (Foxtail, Green) = test: Postemergence herbicidal evaluation; format: in vivo, Setaria viridis; settings: postemergence
Procedure, shortened: as §1

ECHCG (Barnyardgrass) = test: Postemergence herbicidal evaluation; format: in vivo, Echinochloa crus-galli; settings: postemergence
Procedure, shortened: as §1

[8] = tested on: CHEAL (Lambsquarters, Common); test: Postemergence herbicidal evaluation; format: in vivo, Chenopodium album; settings: postemergence
Procedure, shortened: as §1

[9] = tested on: CHEAL (Lambsquarters, Common); test: Preemergence herbicidal evaluation; format: in vivo, Chenopodium album; settings: rated 4-5 weeks after treatment
Procedure, shortened: as §2

ORYSAT (Rice, Tebonnet) [10] = test: Rice tolerance to post-transplant applications, flooded paddy conditions (Table III); format: in vivo, Oryza sativa, (L.) Tebonnet; settings: in vivo
Procedure, shortened: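 Two ten-day-old Tebonnet seedlings transplanted into flooded silt loam (water 1.5 to 3 cm above soil); three days later the water surface was treated with compound in aqueous/acetone 50/50 at about 0.0313 to 0.500 kg/ha. Visual 0-9 injury rating versus control after three to four weeks in greenhouse.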

C#CCOC(=O)CN1C(=O)CSC1=Nc1cc(-n2c(=O)cc(C(F)(F)F)n(C)c2=O)c(F)cc1Cl [Compound 115, 2-Propynyl 2-{{2-chloro-5-[3,6-dihydro-3-methyl-2,6-dioxo-4-(trifluoromethyl)-1(2H)-pyrimidinyl]-4-fluorophenyl}imino}-4-oxo-3-thiazolidineacetate]
9.0: Herbicidal rating ABUTH (ABUTH (Velvetleaf); rate 0.0315 kg/ha) | Herbicidal rating ABUTH (ABUTH (Velvetleaf); rate 0.0630 kg/ha) | Herbicidal rating SETVI (SETVI (Foxtail, Green); rate 0.0630 kg/ha) | Preemergence herbicidal rating CHEAL ([9]; rate 0.1250 kg/ha) | Preemergence herbicidal rating CHEAL ([9]; rate 0.2500 kg/ha)
6.0: Herbicidal rating AMBEL (AMBEL (Ragweed, Common) [3]; rate 0.0315 kg/ha) | SAGPY herbicidal effect rating ([7]; 0.2500 kg/ha)
7.0: Herbicidal rating AMBEL (AMBEL (Ragweed, Common) [3]; rate 0.0630 kg/ha) | Preemergence herbicidal rating CHEAL ([9]; rate 0.0625 kg/ha)
3.0: Herbicidal rating ABUTH (ABUTH (Velvetleaf); rate 0.0158 kg/ha) | Preemergence herbicidal rating ORYSAT (ORYSAT (Rice, Tebonnet) [4]; rate 0.2500 kg/ha) | Herbicidal rating TRZAWR ([6]; rate 0.0630 kg/ha) | SAGPY herbicidal effect rating ([7]; 0.0625 kg/ha) | Herbicidal rating ECHCG (ECHCG (Barnyardgrass); rate 0.0630 kg/ha)
0.0: Herbicidal rating GALAP (GALAP (Galium); rate 0.0158 kg/ha) | Herbicidal rating GALAP (GALAP (Galium); rate 0.0315 kg/ha) | Preemergence herbicidal rating ORYSAT (ORYSAT (Rice, Tebonnet) [4]; rate 0.0156 kg/ha) | Preemergence herbicidal rating ORYSAT (ORYSAT (Rice, Tebonnet) [4]; rate 0.0313 kg/ha) | Preemergence herbicidal rating ORYSAT (ORYSAT (Rice, Tebonnet) [4]; rate 0.0625 kg/ha) | Preemergence herbicidal rating AMBEL (AMBEL (Ragweed, Common) [5]; rate 0.0156 kg/ha) | Preemergence herbicidal rating AMBEL (AMBEL (Ragweed, Common) [5]; rate 0.0313 kg/ha) | Preemergence herbicidal rating AMBEL (AMBEL (Ragweed, Common) [5]; rate 0.0625 kg/ha) | Preemergence herbicidal rating AMBEL (AMBEL (Ragweed, Common) [5]; rate 0.1250 kg/ha) | Herbicidal rating SETVI (SETVI (Foxtail, Green); rate 0.0158 kg/ha) | Herbicidal rating ECHCG (ECHCG (Barnyardgrass); rate 0.0158 kg/ha) | Herbicidal rating CHEAL ([8]; rate 0.0158 kg/ha)
1.5: Herbicidal rating ORYSAT (ORYSAT (Rice, Tebonnet) [1]; rate 0.0158 kg/ha) | Herbicidal rating TRZAWR ([6]; rate 0.0158 kg/ha)
2.0: Herbicidal rating GALAP (GALAP (Galium); rate 0.0630 kg/ha) | Herbicidal rating ORYSAT (ORYSAT (Rice, Tebonnet) [1]; rate 0.0315 kg/ha) | SAGPY herbicidal effect rating ([7]; 0.0313 kg/ha) | Herbicidal rating ECHCG (ECHCG (Barnyardgrass); rate 0.0315 kg/ha)
1.0: Herbicidal rating AMBEL (AMBEL (Ragweed, Common) [3]; rate 0.0158 kg/ha) | Preemergence herbicidal rating ORYSAT (ORYSAT (Rice, Tebonnet) [4]; rate 0.1250 kg/ha) | Preemergence herbicidal rating AMBEL (AMBEL (Ragweed, Common) [5]; rate 0.2500 kg/ha) | Herbicidal rating CHEAL ([8]; rate 0.0315 kg/ha)
5.0: Herbicidal rating GLXMAW ([2]; rate 0.0158 kg/ha) | Herbicidal rating GLXMAW ([2]; rate 0.0315 kg/ha) | Herbicidal rating GLXMAW ([2]; rate 0.0630 kg/ha) | SAGPY herbicidal effect rating ([7]; 0.1250 kg/ha) | Preemergence herbicidal rating CHEAL ([9]; rate 0.0313 kg/ha)
2.5: Herbicidal rating ORYSAT (ORYSAT (Rice, Tebonnet) [1]; rate 0.0630 kg/ha) | Herbicidal rating TRZAWR ([6]; rate 0.0315 kg/ha)
4.0: Herbicidal rating SETVI (SETVI (Foxtail, Green); rate 0.0315 kg/ha) | Herbicidal rating CHEAL ([8]; rate 0.0630 kg/ha)

CCOC(=O)CN1C(=O)C(Cc2ccccc2OCC(=O)O)S/C1=N/c1cc(-n2c(=O)cc(C(F)(F)F)n(C)c2=O)c(F)cc1Cl (stereo not shown) [Compound 113, 5-[o-(Carboxymethoxy)benzyl]-2-{{2-chloro-5-[3,6-dihydro-3-methyl-2,6-dioxo-4-(trifluoromethyl)-1(2H)-pyrimidinyl]-4-fluorophenyl}imino}-4-oxo-3-thiazolidineacetic acid, 3-ethyl ester]
0.0: Herbicidal rating GALAP (GALAP (Galium); rate 0.0315 kg/ha) | Preemergence herbicidal rating ORYSAT (ORYSAT (Rice, Tebonnet) [4]; rate 0.0156 kg/ha) | Preemergence herbicidal rating ORYSAT (ORYSAT (Rice, Tebonnet) [4]; rate 0.0313 kg/ha) | Preemergence herbicidal rating ORYSAT (ORYSAT (Rice, Tebonnet) [4]; rate 0.0625 kg/ha) | Preemergence herbicidal rating ORYSAT (ORYSAT (Rice, Tebonnet) [4]; rate 0.1250 kg/ha) | Preemergence herbicidal rating ORYSAT (ORYSAT (Rice, Tebonnet) [4]; rate 0.2500 kg/ha) | Preemergence herbicidal rating AMBEL (AMBEL (Ragweed, Common) [5]; rate 0.0156 kg/ha) | Preemergence herbicidal rating AMBEL (AMBEL (Ragweed, Common) [5]; rate 0.0313 kg/ha) | Preemergence herbicidal rating AMBEL (AMBEL (Ragweed, Common) [5]; rate 0.0625 kg/ha) | Preemergence herbicidal rating AMBEL (AMBEL (Ragweed, Common) [5]; rate 0.1250 kg/ha) | ORYSAT herbicidal effect rating (rice tolerance) (ORYSAT (Rice, Tebonnet) [10]) | Herbicidal rating ECHCG (ECHCG (Barnyardgrass); rate 0.0158 kg/ha) | Preemergence herbicidal rating CHEAL ([9]; rate 0.0625 kg/ha)
4.5: Herbicidal rating GLXMAW ([2]; rate 0.0158 kg/ha)
6.0: SAGPY herbicidal effect rating ([7]; 0.0625 kg/ha) | Preemergence herbicidal rating CHEAL ([9]; rate 0.0156 kg/ha)
5.5: Herbicidal rating GLXMAW ([2]; rate 0.0315 kg/ha) | Herbicidal rating GLXMAW ([2]; rate 0.0630 kg/ha)
2.5: Herbicidal rating ORYSAT (ORYSAT (Rice, Tebonnet) [1]; rate 0.0630 kg/ha)
5.0: Herbicidal rating AMBEL (AMBEL (Ragweed, Common) [3]; rate 0.0158 kg/ha) | Herbicidal rating CHEAL ([8]; rate 0.0158 kg/ha)
3.0: Herbicidal rating TRZAWR ([6]; rate 0.0630 kg/ha) | Herbicidal rating SETVI (SETVI (Foxtail, Green); rate 0.0158 kg/ha) | Herbicidal rating SETVI (SETVI (Foxtail, Green); rate 0.0630 kg/ha)
4.0: SAGPY herbicidal effect rating ([7]; 0.0313 kg/ha) | Herbicidal rating CHEAL ([8]; rate 0.0315 kg/ha)
1.0: Herbicidal rating GALAP (GALAP (Galium); rate 0.0158 kg/ha) | Herbicidal rating ECHCG (ECHCG (Barnyardgrass); rate 0.0315 kg/ha) | Herbicidal rating ECHCG (ECHCG (Barnyardgrass); rate 0.0630 kg/ha)
7.0: Herbicidal rating CHEAL ([8]; rate 0.0630 kg/ha) | Preemergence herbicidal rating CHEAL ([9]; rate 0.0313 kg/ha)
2.0: Herbicidal rating GALAP (GALAP (Galium); rate 0.0630 kg/ha) | Herbicidal rating ORYSAT (ORYSAT (Rice, Tebonnet) [1]; rate 0.0158 kg/ha) | Herbicidal rating ORYSAT (ORYSAT (Rice, Tebonnet) [1]; rate 0.0315 kg/ha) | Preemergence herbicidal rating AMBEL (AMBEL (Ragweed, Common) [5]; rate 0.2500 kg/ha) | Herbicidal rating TRZAWR ([6]; rate 0.0158 kg/ha) | Herbicidal rating TRZAWR ([6]; rate 0.0315 kg/ha)
9.0: Herbicidal rating ABUTH (ABUTH (Velvetleaf); rate 0.0158 kg/ha) | Herbicidal rating ABUTH (ABUTH (Velvetleaf); rate 0.0315 kg/ha) | Herbicidal rating ABUTH (ABUTH (Velvetleaf); rate 0.0630 kg/ha) | Herbicidal rating AMBEL (AMBEL (Ragweed, Common) [3]; rate 0.0315 kg/ha) | Herbicidal rating AMBEL (AMBEL (Ragweed, Common) [3]; rate 0.0630 kg/ha) | SAGPY herbicidal effect rating ([7]; 0.1250 kg/ha) | SAGPY herbicidal effect rating ([7]; 0.2500 kg/ha) | Preemergence herbicidal rating CHEAL ([9]; rate 0.1250 kg/ha) | Preemergence herbicidal rating CHEAL ([9]; rate 0.2500 kg/ha)
